Assay results from patent publication US6498125B2, “Pyridine ketones useful as herbicides” (Syngenta Participations AG, priority 1998, dated 2002).

Assays:
[1] = tested on: Monocotyledonous and dicotyledonous test plants; experiment: Example B2: post-emergence herbicidal action, 2 kg of AS/ha; assay type: in vivo; parameters: key: 1 = complete damage, 9 = no effect; conditions: 4- to 6-leaf stage, about 18 days, scale 1-9; for post-emergence action rating, Avena: test plant Avena; for post-emergence action rating, Setaria: test plant Setaria; for post-emergence action rating, Sinapis: test plant Sinapis; for post-emergence action rating, Solanum: test plant Solanum; for post-emergence action rating, Stellaria: test plant Stellaria
Experimental: Monocotyledonous and dicotyledonous test plants are grown in plastic pots with standard soil in a greenhouse and, in the 4- to 6-leaf stage, are sprayed with an aqueous suspension of the test substances of the formula 1, prepared from a 25% wettable powder (Example F3, b) according to WO 97134485) or with an emulsion of the test substances of the formula I, prepared from a 25% emulsion concentrate (Example F1, c) according to WO 97/34485), corresponding to a dosage of 2 kg of AS/ha (500 l of water/ha). The test plants are then grown further under optimum conditions in a greenhouse. After a test period of about 18 days, the test is evaluated with a nine-level scale of rating (1=complete damage, 9=no effect). Ratings of 1 to 4 (in particular 1 to 3) mean good to very good herbicidal action. In this test, the compounds of the formula I show strong herbicidal action.

[2] = tested on: Monocotyledonous and dicotyledonous test plants; experiment: Example B1: pre-emergence herbicidal action, 2 kg of AS/ha; assay type: in vivo; conditions: 3 weeks, scale 1-9; for pre-emergence action rating, Avena: test plant Avena; for pre-emergence action rating, Cyperus: test plant Cyperus; for pre-emergence action rating, Setaria: test plant Setaria; for pre-emergence action rating, Sinapis: test plant Sinapis; for pre-emergence action rating, Solanum: test plant Solanum; for pre-emergence action rating, Stellaria: test plant Stellaria
Experimental: Monocotyledonous and dicotyledonous test plants are sown in standard soil in plastic pots. Immediately after sowing, the test substances are sprayed on (500 l of water/ha) as an aqueous suspension (prepared from a 25% wettable powder (Example F3, b) according to WO 97/34485) or emulsion (prepared from a 25% emulsion concentrate (Example F1, c)), corresponding to a dosage of 2 kg of AS/ha. The test plants are then grown under optimum conditions in a greenhouse. After a test period of 3 weeks, the test is evaluated with a nine-level scale of ratings (1=complete damage, 9=no effect). Ratings of 1 to 4 (in particular 1 to 3) mean good to very good herbicidal action.

Compound | post-emergence action rating, Avena [1] | post-emergence action rating, Setaria [1] | post-emergence action rating, Sinapis [1] | post-emergence action rating, Solanum [1] | post-emergence action rating, Stellaria [1] | pre-emergence action rating, Avena [2] | pre-emergence action rating, Cyperus [2] | pre-emergence action rating, Setaria [2] | pre-emergence action rating, Sinapis [2] | pre-emergence action rating, Solanum [2] | pre-emergence action rating, Stellaria [2]
Cc1nc(C(F)(F)F)ccc1C(=O)C1=C(O)C(C)(C)ON(C)C1=O [Compound 4.009] | 1 | 1 | 1 | 1 | 1 | 1 | 2 | 1 | 2 | 1 | 3
Cc1nc(C(F)(F)F)ccc1C(=O)C1=C(OC(=O)c2ccccc2)C2CCC(C2)C1=O (stereo not drawn) [Compound 1.402] | 2 | 2 | 1 | 2 | 2 | 2 | 1 | 1 | 2 | 1 | 2
COc1nc(C(F)(F)F)ccc1C(=O)C1=C(O)C2CCC(C2)C1=O (stereo not drawn) [Compound 1.043] | 2 | 2 | 1 | 2 | 2 | 4 | 2 | 1 | 2 | 1 | 2
CC1=CC(C)(C)C(O)=C(C(=O)c2ccc(C(F)(F)F)nc2C)C1=O [Compound 5.008] | 2 | 3 | 1 | 1 | 2 | 2 | 1 | 1 | 2 | 1 | 2
Cc1nc(C(F)(F)F)ccc1C(=O)C1=C(Sc2ccccc2)C2CCC(C2)C1=O (stereo not drawn) [Compound 1.381] | 2 | 2 | 2 | 2 | 2 | 4 | 1 | 2 | 2 | 1 | 1
CCOC(=O)OC1=C(C(=O)c2ccc(C(F)(F)F)nc2C)C(=O)C2CCC1C2 (stereo not drawn) [Compound 1.409] | 2 | 1 | 1 | 1 | 2 | 1 | 1 | 1 | 1 | 1 | 1
Cc1nc(C(F)(F)F)ccc1C(=O)C1=C(O)C2CCC(C2)C1=O (stereo not drawn) [Compound 1.009, 4-hydroxy-3-(2-methyl-6-trifluoromethylpyridine-3-carbonyl)bicyclo[3.2.1]oct-3-en-2-one] | 1 | 1 | 1 | 1 | 2 | 2 | 1 | 1 | 2 | 1 | 2
CC(C)c1nc(C(F)(F)F)ccc1C(=O)C1=C(O)C2CCC(C2)C1=O (stereo not drawn) [Compound 1.011] | 2 | 2 | 2 | 2 | 2 | 2 | 1 | 1 | 1 | 1 | 1
CCN(CC)C(=O)OC1=C(C(=O)c2ccc(C(F)(F)F)nc2C)C(=O)C2CCC1C2 (stereo not drawn) [Compound 1.41] | 1 | 1 | 1 | 1 | 1 | 2 | 1 | 1 | 1 | 1 | 1
Cc1nc(C(F)(F)F)ccc1C(=O)C1=C(OC(=O)C(C)(C)C)C2CCC(C2)C1=O (stereo not drawn) [Compound 1.4] | 2 | 2 | 1 | 2 | 2 | 2 | 1 | 1 | 2 | 1 | 2
CC=CC(=O)OC1=C(C(=O)c2ccc(C(F)(F)F)nc2C)C(=O)C2CCC1C2 (stereo not drawn) [Compound 1.406] | 2 | 2 | 1 | 1 | 2 | 2 | 1 | 1 | 1 | 1 | 2
Cc1nc(C(F)(F)F)ccc1C(=O)C1=C(OC(=O)C2CC2)C2CCC(C2)C1=O (stereo not drawn) [Compound 1.403] | 2 | 2 | 1 | 2 | 2 | 2 | 1 | 1 | 1 | 1 | 2
